Source: US20040110731A1, “Photodynamic therapy for the treatment of non-melanoma skin cancer” (priority 2002, published 2004)

Experiments:
[1] = tested on: multiple non-melanoma skin tumors; test: Verteporfin PDT in patients, visual assessment of treatment sites for clinical complete response (tumor free); type: in vivo, human; details: for Clinical Complete Response (percentage of treatment sites judged free of tumors): 14 mg/m^2 BPD-MA IV
Procedure: (§1) Visudyne^1 was diluted to 30 ml with 5% dextrose in water. This solution was then administered intravenously by a ten minute infusion to fifty-four patients having multiple non-melanoma skin tumors. The final concentration of BPD-MA administered was 14 mg per m^2 of body surface area. The body surface area was calculated by taking the square root of the […] of (height (cm)×weight (kg))÷3600. ^1 available from Movartis Opthalmics, Duluth, Ga. 30097, USA.
(§2) One to three hours after the start of drug infusion the patients either had their tumors treated with a light dose of 60 or 120 J/cm^2 (as comparative examples) or with a light dose of 180 J/cm^2 according to the invention. The light doses were all of red (688 nm) LED light with a fluence rate of 200 mW/cm^2. A total of 421 tumors were treated. 194 received 60 J/cm^2, 117 received 120 J/cm^2, and 110 received 180 J/cm^2.
Tumors were examined for clinical response after 3 months.
(§3) The efficacy of the treatment and the cosmetic outcome were assessed at 6 months and 24 months from the start of treatment. As a measure of efficacy, each treatment site was visually assessed by a physician to see if it was tumor free. The percentage of treatment sites that were judged to be free of tumors is shown in Table 1 (Clinical Complete Response). The treatment sites were also visually graded by the physician to assess the Cosmetic Outcome. Each tumor site was graded as an excellent, good, satisfactory, or less than satisfactory based on the color, profile, and texture of each treated site.

[2] = Verteporfin PDT in patients, physician visual grading of cosmetic outcome of treated sites (color, profile, texture); type: in vivo, human; details: 14 mg/m^2 BPD-MA IV
Procedure: as §1, §2, §3

[3] = tested on: non-melanoma skin cancers; details: cited from earlier work
[4] = 6 months, light dose 60 J/cm^2 (comparative), 688 nm
[5] = 6 months, light dose 120 J/cm^2 (comparative), 688 nm
[6] = 6 months, light dose 180 J/cm^2, 688 nm
[7] = 24 months, light dose 60 J/cm^2 (comparative), 688 nm
[8] = 24 months, light dose 120 J/cm^2 (comparative), 688 nm
[9] = 24 months, light dose 180 J/cm^2, 688 nm

Tumor Cosmetic Outcome (percentage of treatment sites judged satisfactory or better) [2, 4]: 90.6%
Tumor Cosmetic Outcome (percentage of treatment sites judged satisfactory or better) [2, 5]: 87.5%
Tumor Cosmetic Outcome (percentage of treatment sites judged satisfactory or better) [2, 6]: 64.8%
Tumor Cosmetic Outcome (percentage of treatment sites judged satisfactory or better) [2, 7]: 91.8%
Tumor Cosmetic Outcome (percentage of treatment sites judged satisfactory or better) [2, 8]: 76.4%
Tumor Cosmetic Outcome (percentage of treatment sites judged satisfactory or better) [2, 9]: 85.5%
Substance: benzoporphyrin derivative monoacid A ring [Visudyne]
Clinical response of tumors ([1]; 3 months, tumors on six patients of the comparative 60 J/cm^2 group): no response
Clinical Complete Response (percentage of treatment sites judged free of tumors) [1, 4]: 78.3%
Clinical Complete Response (percentage of treatment sites judged free of tumors) [1, 5]: 88.5%
Clinical Complete Response (percentage of treatment sites judged free of tumors) [1, 6]: 98.0%
Clinical Complete Response (percentage of treatment sites judged free of tumors) [1, 7]: 51.3%
Clinical Complete Response (percentage of treatment sites judged free of tumors) [1, 8]: 78.6%
Clinical Complete Response (percentage of treatment sites judged free of tumors) [1, 9]: 95.4%
Clinical response ([3]; 60 J/cm^2): relatively poor clinical response
Cosmetic outcome ([3]; 180 J/cm^2): relatively poor cosmetic outcome
Cosmetic results with tumor clearing ([3]; light fluence 120 J/cm^2): good to excellent
